Test results from PubChem BioAssay AID330 (DTP/NCI, 2004).
Where “and” joins values, the source holds several entries; their conditions need not be identical. Equal values may be shown once. Inconclusive results and toxic doses are left out. How the source made its calls: active means survival T/C of 150% or more; inactive means T/C below 125% in these data.

System: P388 leukemia ip, CD2F1 mice, survival T/C
Experiment: NCI In Vivo Anticancer Drug Screen. Data for tumor model P388 Leukemia (intraperitoneal) in CD2F1 (CDF1) mice
Settings: endpoint: median survival time, higher = longer survival
Procedure, shortened: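 Mice carrying the transplanted tumor received test compound or vehicle. Survival was recorded in each group, and the value is the treated-group measurement divided by that of the vehicle-treated control group.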

[1] = dose: 25.0 mg/kg/injection, schedule: Q01DX005 (ip), vehicle: Klucel (hydroxypropylcellulose) (HPC)
[2] = dose: 50.0 mg/kg/injection, schedule: Q01DX005 (ip), vehicle: Klucel (hydroxypropylcellulose) (HPC)
[3] = dose: 100.0 mg/kg/injection, schedule: Q01DX005 (ip), vehicle: Klucel (hydroxypropylcellulose) (HPC)
[4] = dose: 200.0 mg/kg/injection, schedule: Q01DX005 (ip), vehicle: Klucel (hydroxypropylcellulose) (HPC)
[5] = dose: 50.0 mg/kg/injection, schedule: Q01DX005 (ip), vehicle: saline
[6] = dose: 60.0 mg/kg/injection, schedule: Q01DX005 (ip), vehicle: saline with Tween-80
[7] = dose: 120.0 mg/kg/injection, schedule: Q01DX005 (ip), vehicle: saline with Tween-80
[8] = dose: 240.0 mg/kg/injection, schedule: Q01DX005 (ip), vehicle: saline with Tween-80
[9] = dose: 25.0 mg/kg/injection, schedule: Q01DX009 (ip), vehicle: saline with Tween-80
[10] = dose: 50.0 mg/kg/injection, schedule: Q01DX009 (ip), vehicle: saline with Tween-80
[11] = dose: 100.0 mg/kg/injection, schedule: Q01DX009 (ip), vehicle: saline with Tween-80
[12] = dose: 200.0 mg/kg/injection, schedule: Q01DX009 (ip), vehicle: saline with Tween-80
[13] = dose: 50.0 mg/kg/injection, schedule: Q01DX005 (ip), vehicle: saline with Tween-80
[14] = dose: 100.0 mg/kg/injection, schedule: Q01DX005 (ip), vehicle: saline with Tween-80
[15] = dose: 200.0 mg/kg/injection, schedule: Q01DX005 (ip), vehicle: saline with Tween-80

Measured: T/C

O=C(O[C@H]1CCN2C[C@H]3C[C@H](CN4C(=O)CCC[C@H]34)[C@@H]2C1)c1ccc(O)cc1
inactive: dose: 6.25 mg/kg/injection, schedule: Q01DX005 (ip), vehicle: Klucel (hydroxypropylcellulose) (HPC) 103 % of control | dose: 12.5 mg/kg/injection, schedule: Q01DX005 (ip), vehicle: Klucel (hydroxypropylcellulose) (HPC) 106 % of control | [1] 104 % of control

CC(=O)Nc1ccc(C(=O)C(C)Cl)cc1 (centres undefined)
inactive: dose: 50.0 mg/kg/injection, schedule: Q01DX009 (ip), vehicle: Klucel (hydroxypropylcellulose) (HPC) 100 % of control and 104 % of control and 105 % of control | dose: 100.0 mg/kg/injection, schedule: Q01DX009 (ip), vehicle: Klucel (hydroxypropylcellulose) (HPC) 105 % of control and 117 % of control and 89 % of control | dose: 200.0 mg/kg/injection, schedule: Q01DX009 (ip), vehicle: Klucel (hydroxypropylcellulose) (HPC) 99 % of control and 117 % of control and 123 % of control | dose: 400.0 mg/kg/injection, schedule: Q01DX009 (ip), vehicle: Klucel (hydroxypropylcellulose) (HPC) 105 % of control

CC(=O)OCC1OC(OC2C(COC(C)=O)OC(Sc3ccccc3)C(OC(C)=O)C2OC(C)=O)C(OC(C)=O)C(OC(C)=O)C1OC(C)=O (centres undefined)
inactive: [2] 100 % of control | [3] 100 % of control | dose: 100.0 mg/kg/injection, schedule: Q04DX002 (ip), vehicle: Klucel (hydroxypropylcellulose) (HPC) 94 % of control | [4] 109 % of control | dose: 200.0 mg/kg/injection, schedule: Q04DX002 (ip), vehicle: Klucel (hydroxypropylcellulose) (HPC) 91 % of control

N#C[C@H]1O[C@H]1c1ccc[n+]([O-])c1
inactive: dose: 12.5 mg/kg/injection, schedule: Q01DX005 (ip), vehicle: saline 107 % of control | dose: 25.0 mg/kg/injection, schedule: Q01DX005 (ip), vehicle: saline 102 % of control | [5] 103 % of control and 115 % of control

Cc1ccc(S(=O)(=O)NC(=O)O/N=C/c2ccco2)cc1
inactive: [2] 98 % of control | [3] 98 % of control | [4] 100 % of control

CN(C)c1nnn(Cc2ccccc2)n1
inactive: [2] 101 % of control | [3] 97 % of control | [4] 104 % of control

Nc1ncnc2c1c(-c1ccccc1)cn2-c1ccc(I)cc1
inactive: [6] 103 % of control | [7] 100 % of control | [8] 96 % of control

C1SSCC2=C1CSSC2
inactive: [6] 100 % of control | [7] 100 % of control | [8] 107 % of control

c1ccc(C2=NCCCO2)cc1
inactive: [9] 104 % of control | dose: 25.0 mg/kg/injection, schedule: Q04DX003 (ip), vehicle: saline with Tween-80 100 % of control | [10] 95 % of control | dose: 50.0 mg/kg/injection, schedule: Q04DX003 (ip), vehicle: saline with Tween-80 100 % of control | [11] 108 % of control | dose: 100.0 mg/kg/injection, schedule: Q04DX003 (ip), vehicle: saline with Tween-80 100 % of control

COc1ccc(C2SCC(=O)N2c2nncs2)c(OC)c1 (centres undefined)
inactive: dose: 60.0 mg/kg/injection, schedule: Q01DX005 (ip), vehicle: Klucel (hydroxypropylcellulose) (HPC) 99 % of control | dose: 120.0 mg/kg/injection, schedule: Q01DX005 (ip), vehicle: Klucel (hydroxypropylcellulose) (HPC) 106 % of control | dose: 240.0 mg/kg/injection, schedule: Q01DX005 (ip), vehicle: Klucel (hydroxypropylcellulose) (HPC) 110 % of control

O=C1CCCC/C1=C/c1ccccc1
inactive: dose: 25.0 mg/kg/injection, schedule: Q01DX005 (ip), vehicle: distilled water + Tween-80 + alcohol 98 % of control | dose: 50.0 mg/kg/injection, schedule: Q01DX005 (ip), vehicle: distilled water + Tween-80 + alcohol 98 % of control | dose: 100.0 mg/kg/injection, schedule: Q01DX005 (ip), vehicle: distilled water + Tween-80 + alcohol 100 % of control | dose: 200.0 mg/kg/injection, schedule: Q01DX005 (ip), vehicle: distilled water + Tween-80 + alcohol 98 % of control

O=c1[nH]c(CN2CCOCC2)ncc1C1CCCCC1
inactive: [10] 97 % of control | [11] 100 % of control | [12] 95 % of control

CC1(C)CC(C)(OC(=O)c2ccc([N+](=O)[O-])cc2)[N+]([O-])=N1 (centres undefined)
inactive: dose: 12.5 mg/kg/injection, schedule: Q01DX009 (ip), vehicle: other 96 % of control | dose: 25.0 mg/kg/injection, schedule: Q01DX009 (ip), vehicle: other 100 % of control | dose: 50.0 mg/kg/injection, schedule: Q01DX009 (ip), vehicle: other 95 % of control | dose: 100.0 mg/kg/injection, schedule: Q01DX009 (ip), vehicle: other 94 % of control | dose: 200.0 mg/kg/injection, schedule: Q01DX009 (ip), vehicle: other 88 % of control

CCN(CC)CCOC(=O)c1ccc(N)cc1
inactive: dose: 50.0 mg/kg/injection, schedule: Q01DX009 (ip), vehicle: saline 98 % of control | dose: 100.0 mg/kg/injection, schedule: Q01DX009 (ip), vehicle: saline 100 % of control

Cc1cc(=O)c2cc3ccc4c5[nH]c(C)cc(=O)c5cc5ccc(c2[nH]1)c3c54
inactive: [13] 101 % of control | [14] 106 % of control | [15] 111 % of control

Cn1[nH]c2[nH]c(=S)sc(=S)c2c1=O
inactive: [1] 109 % of control | [2] 109 % of control | [3] 98 % of control | [4] 104 % of control

Cc1ccc(O)c(O)c1
inactive: dose: 25.0 mg/kg/injection, schedule: Q01DX009 (ip), vehicle: saline 101 % of control

CCC1=C[C@H]2CN(CCc3c([nH]c4ccccc34)[C@@](C(=O)OC)(c3cc4c(cc3OC)N(C)[C@H]3C(C(=O)NC)=C[C@]5(CC)C=CCN6CC[C@]43[C@@H]65)C2)C1
inactive: dose: 1.0 mg/kg/injection, schedule: Q01DX001 (ip), vehicle: other 101 % of control | dose: 2.0 mg/kg/injection, schedule: Q01DX001 (ip), vehicle: other 101 % of control | dose: 4.0 mg/kg/injection, schedule: Q01DX001 (ip), vehicle: other 107 % of control | dose: 8.0 mg/kg/injection, schedule: Q01DX001 (ip), vehicle: other 108 % of control | dose: 16.0 mg/kg/injection, schedule: Q01DX001 (ip), vehicle: other 114 % of control | dose: 32.0 mg/kg/injection, schedule: Q01DX001 (ip), vehicle: other 112 % of control and 123 % of control | dose: 64.0 mg/kg/injection, schedule: Q01DX001 (ip), vehicle: other 119 % of control

Cc1cc(C)c2c(n1)sc1c(=O)n(N)c(C)nc12
inactive: [6] 87 % of control | [8] 94 % of control and 95 % of control

O=[N+]([O-])c1ccc(N2CCCC2)c([N+](=O)[O-])c1
inactive: [9] 100 % of control | [10] 104 % of control | [11] 100 % of control | [12] 100 % of control

CCC(=N)C(c1ccccc1)(c1ccccc1)C(C)CN(C)C (centres undefined)
inactive: dose: 15.0 mg/kg/injection, schedule: Q01DX005 (ip), vehicle: saline 101 % of control | dose: 30.0 mg/kg/injection, schedule: Q01DX005 (ip), vehicle: saline 101 % of control | dose: 60.0 mg/kg/injection, schedule: Q01DX005 (ip), vehicle: saline 100 % of control

O=C1CC(C(=O)O)C(C(=O)O)O1 (centres undefined)
inactive: [5] 100 % of control | dose: 100.0 mg/kg/injection, schedule: Q01DX005 (ip), vehicle: saline 111 % of control | dose: 200.0 mg/kg/injection, schedule: Q01DX005 (ip), vehicle: saline 93 % of control

CCC(=O)NN(Cn1c(=S)sc2ccccc21)Cn1c(=S)sc2ccccc21
inactive: [2] 99 % of control | [3] 89 % of control | [4] 93 % of control

O=C(CC(O)CCc1ccc(O)c(O)c1)O[C@H]1Cc2c(O)cc(O)cc2O[C@H]1c1ccc(O)c(O)c1 (some centres undefined)
inactive: dose: 20.0 mg/kg/injection, schedule: Q01DX005 (ip), vehicle: saline with Tween-80 105 % of control | dose: 40.0 mg/kg/injection, schedule: Q01DX005 (ip), vehicle: saline with Tween-80 105 % of control | dose: 80.0 mg/kg/injection, schedule: Q01DX005 (ip), vehicle: saline with Tween-80 100 % of control

CCOC(=O)CC(=O)c1sc(Nc2ccccc2)c(C(N)=O)c1N
inactive: [13] 100 % of control | [14] 94 % of control | [15] 94 % of control

COc1cc(C(=O)c2ccc3c(c2)OCO3)cc(OC)c1OC
inactive: [2] 98 % of control | [3] 93 % of control | [4] 99 % of control
